From patent US20130296311A1, “INHIBITORS OF HCV NS5A” (PRESIDIO PHARMACEUTICALS, INC., priority 2010, published 2013)

Tested on: HCV 1b_Huh-Luc/Neo-ET cell line persistently expressing a bicistronic genotype 1b replicon in Huh 7 cells
Experiment: HCV replicon assay (luciferase readout, 72 h)
Format: cell-based, HCV genotype 1b
Conditions: Hepatitis C virus, Huh-7, 72 h, read-out: Inhibition of HCV genotype 1b
Procedure, shortened: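 EC50 values come from a four-parameter fit of luciferase signal as % of untreated control, repeated across several determinations. The signal is from the HCV 1b_Huh-Luc/Neo-ET replicon line, dosed in triplicate one day post-plating and incubated 72 h before Bright-Glo readout.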

| SMILES | EC50 |
| --- | --- |
| COC(=O)N[C@H](C(=O)N[C@@H](C)c1ncc(-c2ccc(C#Cc3ccc(-c4cnc([C@@H]5CCCN5C(=O)[C@@H](NC(=O)OC)[C@@H](C)OC)[nH]4)cc3)cc2)[nH]1)[C@@H](C)OC [Compound 289] | < 1 nM |
| COC(=O)N[C@@H](C(=O)N[C@@H](C)c1ncc(-c2ccc(C#Cc3ccc(-c4cnc([C@@H]5CCCN5C(=O)[C@H](NC(=O)OC)C(C)C)[nH]4)cc3)cc2)[nH]1)C(C)C [Compound 290] | > 1000 nM |
| COC(=O)N[C@H](C(=O)N[C@@H](C)c1ncc(-c2ccc(C#Cc3ccc(-c4cnc([C@@H]5CCCN5C(=O)[C@@H](NC(=O)OC)[C@@H](C)O)[nH]4)cc3)cc2)[nH]1)[C@@H](C)O [Compound 291] | < 1 nM |
| COC(=O)N[C@@H](C(=O)N1CCC[C@H]1c1ncc(-c2ccc(C#Cc3ccc(-c4cnc([C@@H]5CCCN5C(=O)[C@H](NC(=O)OC)C(C)C)[nH]4)cc3)cc2)[nH]1)C(C)C [Compound 292] | > 1000 nM |
| CC(C)[C@@H](NC(=O)N1CCCC1)C(=O)N1CCC[C@H]1c1ncc(-c2ccc(C#Cc3ccc(-c4cnc([C@@H]5CCCN5C(=O)[C@H](NC(=O)N5CCCC5)C(C)C)[nH]4)cc3)cc2)[nH]1 [Compound 293] | > 1000 nM |
| CC(C)(C)OC(=O)N[C@@H](C(=O)N1CCC[C@H]1c1ncc(C#Cc2ccc(C#Cc3cnc([C@@H]4CCCN4C(=O)[C@H](NC(=O)OC(C)(C)C)c4ccccc4)[nH]3)cc2)[nH]1)c1ccccc1 [Compound 300] | < 1 nM |
| CC(C)[C@@H](NC(=O)OC(C)(C)C)C(=O)N1CCC[C@H]1c1ncc(C#Cc2ccc(C#Cc3cnc([C@@H]4CCCN4C(=O)[C@H](NC(=O)OC(C)(C)C)C(C)C)[nH]3)cc2)[nH]1 [Compound 301] | > 1000 nM |
| CC(C)[C@@H](NC(=O)C1CC1)C(=O)N1CCC[C@H]1c1ncc(C#Cc2ccc(C#Cc3cnc([C@@H]4CCCN4C(=O)[C@H](NC(=O)C4CC4)C(C)C)[nH]3)cc2)[nH]1 [Compound 302] | > 1000 nM |
| O=C(N[C@@H](C(=O)N1CCC[C@H]1c1ncc(C#Cc2ccc(C#Cc3cnc([C@@H]4CCCN4C(=O)[C@H](NC(=O)C4CC4)c4ccccc4)[nH]3)cc2)[nH]1)c1ccccc1)C1CC1 [Compound 303] | < 1 nM |
| COC(=O)N[C@@H](C(=O)N1CCC[C@H]1c1ncc(C#Cc2ccc(C#Cc3cnc([C@@H]4CCCN4C(=O)[C@H](NC(=O)OC)c4ccccc4)[nH]3)cc2)[nH]1)c1ccccc1 [Compound 304] | < 1 nM |
| CN(C)[C@@H](C(=O)N1CCC[C@H]1c1ncc(C#Cc2ccc(C#Cc3cnc([C@@H]4CCCN4C(=O)[C@@H](c4ccccc4)N(C)C)[nH]3)cc2)[nH]1)c1ccccc1 [Compound 305] | < 1 nM |
| CC(=O)N[C@@H](C(=O)N1CCC[C@H]1c1ncc(C#Cc2ccc(C#Cc3cnc([C@@H]4CCCN4C(=O)[C@H](NC(C)=O)c4ccccc4)[nH]3)cc2)[nH]1)c1ccccc1 [Compound 306] | < 1 nM |
| CNC(=O)N[C@@H](C(=O)N1CCC[C@H]1c1ncc(C#Cc2ccc(C#Cc3cnc([C@@H]4CCCN4C(=O)[C@H](NC(=O)NC)c4ccccc4)[nH]3)cc2)[nH]1)c1ccccc1 [Compound 307] | < 1 nM |
| CN(C)C(=O)N[C@@H](C(=O)N1CCC[C@H]1c1ncc(C#Cc2ccc(C#Cc3cnc([C@@H]4CCCN4C(=O)[C@H](NC(=O)N(C)C)c4ccccc4)[nH]3)cc2)[nH]1)c1ccccc1 [Compound 308] | < 1 nM |
| O=C(N[C@@H](C(=O)N1CCC[C@H]1c1ncc(C#Cc2ccc(C#Cc3cnc([C@@H]4CCCN4C(=O)[C@H](NC(=O)N4CCOCC4)c4ccccc4)[nH]3)cc2)[nH]1)c1ccccc1)N1CCOCC1 [Compound 309] | < 1 nM |
| CN1CCN(C(=O)N[C@@H](C(=O)N2CCC[C@H]2c2ncc(C#Cc3ccc(C#Cc4cnc([C@@H]5CCCN5C(=O)[C@H](NC(=O)N5CCN(C)CC5)c5ccccc5)[nH]4)cc3)[nH]2)c2ccccc2)CC1 [Compound 310] | 1 to 9.9 nM |

| SMILES | EC50 |
| --- | --- |
| COC(=O)N[C@@H](C(=O)N1CCC[C@H]1c1ncc(C#Cc2ccc(C#Cc3cnc([C@@H]4CCCN4C(=O)[C@@H](c4ccccc4)N4CCCC4)[nH]3)cc2)[nH]1)c1ccccc1 [Compound 311] | < 1 nM |
| COC(=O)N[C@@H](C(=O)N1CCC[C@H]1c1ncc(C#Cc2ccc(C#Cc3cnc([C@@H]4CCCN4C(=O)[C@@H](c4ccccc4)N4CCCCC4)[nH]3)cc2)[nH]1)c1ccccc1 [Compound 312] | < 1 nM |
| COC(=O)N[C@@H](C(=O)N1CCC[C@H]1c1ncc(C#Cc2ccc(C#Cc3cnc([C@@H]4CCCN4C(=O)[C@@H](c4ccccc4)N4CCOCC4)[nH]3)cc2)[nH]1)c1ccccc1 [Compound 313] | < 1 nM |
| COC(=O)N[C@@H](C(=O)N1CCC[C@H]1c1ncc(C#Cc2ccc(C#Cc3cnc([C@@H]4CCCN4C(=O)[C@@H](c4ccccc4)N(C)C)[nH]3)cc2)[nH]1)c1ccccc1 [Compound 314] | < 1 nM |
| CCN(CC)[C@@H](C(=O)N1CCC[C@H]1c1ncc(C#Cc2ccc(C#Cc3cnc([C@@H]4CCCN4C(=O)[C@H](NC(=O)OC)c4ccccc4)[nH]3)cc2)[nH]1)c1ccccc1 [Compound 315] | < 1 nM |
| COC(=O)N[C@@H](C(=O)N1CCC[C@H]1c1ncc(C#Cc2ccc3nc([C@@H]4CCCN4C(=O)[C@H](NC(=O)OC)c4ccccc4)[nH]c3c2)[nH]1)c1ccccc1 [Compound 700] | < 1 nM |
| COC(=O)N[C@@H](C(=O)N1CCC[C@H]1c1ncc(C#Cc2ccc(-c3ccc(-c4cnc([C@@H]5CCCN5C(=O)[C@H](NC(=O)OC)c5ccccc5)[nH]4)cc3)cc2)[nH]1)c1ccccc1 [Compound 750] | < 1 nM |
| CCN(CC)[C@@H](C(=O)N1CCC[C@H]1c1ncc(-c2ccc(-c3ccc(C#Cc4cnc([C@@H]5CCCN5C(=O)[C@H](NC(=O)OC)c5ccccc5)[nH]4)cc3)cc2)[nH]1)c1ccccc1 [Compound 751] | < 1 nM |
| COC(=O)N[C@@H](C(=O)N1CCC[C@H]1c1ncc(C#Cc2ccc(-c3ccc(-c4cnc([C@@H]5CCCN5C(=O)[C@@H](c5ccccc5)N5CCCCC5)[nH]4)cc3)cc2)[nH]1)c1ccccc1 [Compound 752] | < 1 nM |
| COC(=O)N[C@@H](C(=O)N1CCC[C@H]1c1ncc(C#Cc2ccc(-c3ccc(-c4cnc([C@@H]5CCCN5C(=O)[C@H](NC(=O)OC(C)(C)C)c5ccccc5)[nH]4)cc3)cc2)[nH]1)c1ccccc1 [Compound 753] | < 1 nM |
| COC(=O)N[C@@H](C(=O)N1CCC[C@H]1c1ncc(C#Cc2ccc(-c3ccc(-c4cnc([C@@H]5CCCN5C(=O)[C@H](NC(=O)C5CC5)c5ccccc5)[nH]4)cc3)cc2)[nH]1)c1ccccc1 [Compound 754] | < 1 nM |
| COC(=O)N[C@@H](C(=O)N1CCC[C@H]1c1ncc(C#Cc2ccc(-c3ccc(-c4cnc([C@@H]5CCCN5C(=O)[C@@H](c5ccccc5)N(C)C)[nH]4)cc3)cc2)[nH]1)c1ccccc1 [Compound 755] | < 1 nM |
| COC(=O)N[C@H](C(=O)N1CCC[C@H]1c1ncc(C#Cc2ccc(-c3ccc(-c4cnc([C@@H]5CCCN5C(=O)[C@@H](NC(=O)OC)C(C)C)[nH]4)cc3)cc2)[nH]1)C(C)C [Compound 756] | < 1 nM |
| CC(C)(C)OC(=O)N[C@@H](C(=O)N1CCC[C@H]1c1ncc(C#Cc2ccc(-c3ccc(-c4cnc([C@@H]5CCCN5C(=O)[C@H](NC(=O)OC(C)(C)C)c5ccccc5)[nH]4)cc3)cc2)[nH]1)c1ccccc1 [Compound 757] | < 1 nM |
| COC(=O)N[C@@H](C(=O)N1CCC[C@H]1c1ncc(C#Cc2ccc(-c3ccc(-c4cnc([C@@H]5CCCN5C(=O)[C@@H](c5ccccc5)N5CCOCC5)[nH]4)cc3)cc2)[nH]1)c1ccccc1 [Compound 758] | < 1 nM |
